The results in this text go back to US8962641B2, “Pyrimidine-substituted pyrrolidine derivatives, pharmaceutical compositions and uses thereof” (Boehringer Ingelheim International GmbH, priority 2013, dated 2015).

This assay has as its target human ACC2 (Homo sapiens (Human), UniProt O00763). Put plainly: ACC2 assay (spectrophotometric 384 well assay, NADH-linked kinetic method). The class given is biochemical. As to conditions: hACC2 construct lacking 128 N-terminal amino acids; coupled lactate dehydrogenase/pyruvate kinase reaction, 340 nm, 25° C. Put shortly:
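Baculovirus/insect-cell human ACC2, anion-exchange purified; ADP formation coupled to pyruvate kinase/lactate dehydrogenase, NADH loss followed at 340 nm, 25° C, 15 min. Final 200 μM NADH and acetyl-CoA, 500 uM ATP; vehicle and no-acetyl-CoA wells set 100% and 0%.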

human ACC2, sequence (O00763 129-2458): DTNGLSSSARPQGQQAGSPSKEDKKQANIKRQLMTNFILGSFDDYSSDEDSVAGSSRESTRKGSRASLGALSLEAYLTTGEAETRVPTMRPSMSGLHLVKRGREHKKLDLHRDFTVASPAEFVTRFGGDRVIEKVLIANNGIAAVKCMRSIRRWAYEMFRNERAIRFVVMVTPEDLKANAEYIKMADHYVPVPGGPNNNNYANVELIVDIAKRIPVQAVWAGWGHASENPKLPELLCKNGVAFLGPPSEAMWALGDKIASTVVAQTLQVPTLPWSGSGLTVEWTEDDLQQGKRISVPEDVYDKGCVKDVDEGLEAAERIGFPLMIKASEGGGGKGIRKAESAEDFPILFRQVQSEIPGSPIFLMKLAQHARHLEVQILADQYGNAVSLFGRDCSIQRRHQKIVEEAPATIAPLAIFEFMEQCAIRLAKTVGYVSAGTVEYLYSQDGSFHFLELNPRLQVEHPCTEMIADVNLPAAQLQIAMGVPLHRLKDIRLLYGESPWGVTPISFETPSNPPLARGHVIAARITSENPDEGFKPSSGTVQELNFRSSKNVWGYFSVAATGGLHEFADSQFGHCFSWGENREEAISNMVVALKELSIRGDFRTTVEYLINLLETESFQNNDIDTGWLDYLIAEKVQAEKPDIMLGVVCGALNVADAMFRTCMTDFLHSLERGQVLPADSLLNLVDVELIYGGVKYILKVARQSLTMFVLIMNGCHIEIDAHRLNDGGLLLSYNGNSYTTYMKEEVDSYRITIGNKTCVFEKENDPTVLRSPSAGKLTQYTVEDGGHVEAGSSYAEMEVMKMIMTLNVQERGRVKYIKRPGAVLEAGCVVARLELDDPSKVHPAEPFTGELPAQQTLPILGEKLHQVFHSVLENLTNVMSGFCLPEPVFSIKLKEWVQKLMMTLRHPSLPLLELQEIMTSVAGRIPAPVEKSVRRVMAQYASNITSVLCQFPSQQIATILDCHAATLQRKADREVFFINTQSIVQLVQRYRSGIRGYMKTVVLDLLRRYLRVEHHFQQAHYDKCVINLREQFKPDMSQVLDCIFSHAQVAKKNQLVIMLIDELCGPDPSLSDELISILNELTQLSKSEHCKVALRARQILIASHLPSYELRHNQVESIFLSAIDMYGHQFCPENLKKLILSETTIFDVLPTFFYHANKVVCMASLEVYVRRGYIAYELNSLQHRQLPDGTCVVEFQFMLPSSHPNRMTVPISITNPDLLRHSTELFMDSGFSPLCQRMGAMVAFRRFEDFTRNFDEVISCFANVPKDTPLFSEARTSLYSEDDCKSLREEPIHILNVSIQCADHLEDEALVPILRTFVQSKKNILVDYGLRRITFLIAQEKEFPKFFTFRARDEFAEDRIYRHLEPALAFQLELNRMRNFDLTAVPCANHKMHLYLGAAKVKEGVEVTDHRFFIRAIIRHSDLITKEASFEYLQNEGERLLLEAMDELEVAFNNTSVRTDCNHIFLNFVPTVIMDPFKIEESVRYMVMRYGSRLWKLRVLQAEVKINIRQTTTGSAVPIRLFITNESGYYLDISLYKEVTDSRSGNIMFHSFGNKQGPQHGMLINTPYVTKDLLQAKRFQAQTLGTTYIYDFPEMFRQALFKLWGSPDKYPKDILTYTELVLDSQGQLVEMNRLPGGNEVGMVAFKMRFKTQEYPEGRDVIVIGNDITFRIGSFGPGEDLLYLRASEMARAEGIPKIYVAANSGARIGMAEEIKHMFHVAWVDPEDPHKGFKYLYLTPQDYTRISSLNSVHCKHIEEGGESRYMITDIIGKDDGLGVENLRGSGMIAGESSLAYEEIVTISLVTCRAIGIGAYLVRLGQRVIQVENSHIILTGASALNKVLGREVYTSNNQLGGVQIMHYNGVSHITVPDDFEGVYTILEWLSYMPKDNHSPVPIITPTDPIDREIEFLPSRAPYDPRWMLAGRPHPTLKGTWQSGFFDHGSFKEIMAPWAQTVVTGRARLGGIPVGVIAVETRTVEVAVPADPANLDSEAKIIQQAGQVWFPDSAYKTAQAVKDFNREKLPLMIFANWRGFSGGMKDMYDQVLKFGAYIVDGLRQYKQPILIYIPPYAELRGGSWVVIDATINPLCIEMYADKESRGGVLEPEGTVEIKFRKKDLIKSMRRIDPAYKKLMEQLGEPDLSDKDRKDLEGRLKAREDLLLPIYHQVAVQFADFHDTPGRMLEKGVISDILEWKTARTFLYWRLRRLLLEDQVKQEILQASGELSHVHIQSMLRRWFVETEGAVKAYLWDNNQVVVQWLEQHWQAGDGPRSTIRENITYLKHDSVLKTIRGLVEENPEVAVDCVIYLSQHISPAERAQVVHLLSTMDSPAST

With `CC(=O)N[C@@H](C)c1ccc(O[C@@H]2CCN(c3ncnc(N4CCC(C)(O)C4)c3F)C2)cc1` (stereo partly drawn) [Example 8.269], the concentration for half-maximal inhibition (IC50) (in general, the concentration needed to halve the response being measured) was determined as 188 nM.

`CC(=O)N[C@@H](C)c1ccc(O[C@@H]2CCN(c3ncnc(NCC4(O)CCC4)c3F)C2)cc1` [Example 8.292] displayed a half-maximal inhibitory concentration (IC50) of 359 nM.

As for `CC(=O)N[C@@H](C)c1ccc(O[C@@H]2CCN(c3nc(N(C)CC4CC4)ncc3Cl)C2)cc1` [Example 8.126], the midpoint of inhibition, the IC50, lay at 58 nM.

Take `COC1CCCN(c2ncnc(N3CC[C@@H](Oc4ccc([C@H](C)NC(C)=O)cc4)C3)c2F)C1` (stereo partly drawn) [Example 8.252]: half-maximal inhibition (IC50) was put at 1060 nM.

`CC(=O)N[C@@H](C)c1ccc(O[C@@H]2CCN(c3cc(N4CCOCC4C)ncn3)C2)cc1` (stereo partly drawn) [Example 8.163] registered a concentration for half-maximal inhibition (IC50) of 469 nM.

The compound `CC(=O)N[C@@H](C)c1ccc(O[C@@H]2CCN(c3ccnc(N4CCOC(C(F)(F)F)C4)n3)C2)cc1` (stereo partly drawn) [Example 8.88] had a 50% inhibitory concentration (IC50) of 130 nM.

For the compound `CC(=O)N[C@@H](C)c1ccc(O[C@@H]2CCN(c3nc(N4CCCOCC4)ncc3Cl)C2)cc1` [Example 8.220], the concentration for half-maximal inhibition (IC50) came out at 182 nM.

`COCCCN(C)c1nccc(N2CC[C@@H](Oc3ccc([C@H](C)NC(C)=O)cc3)C2)n1` [Example 8.242] yielded an IC50 of 459 nM.

For `CC(=O)N[C@@H](C)c1ccc(O[C@@H]2CCN(c3nc(N(CCO)C4CC4)ncc3Cl)C2)cc1` [Example 8.211], the IC50 worked out at 506 nM.

Regarding `CC(=O)N[C@@H](C)c1ccc(O[C@@H]2CCN(c3ccnc(N4CCCC4(C)C)n3)C2)cc1` [Example 8.243], the concentration for half-maximal inhibition (IC50) came out at 559 nM.

On to `CC(=O)N[C@@H](C)c1ccc(O[C@@H]2CCN(c3nc(NCC(F)F)ncc3F)C2)cc1` [Example 8.304], for which the IC50 amounted to 510 nM.

`COCCCN(C)c1ncnc(N2CC[C@@H](Oc3ccc([C@H](C)NC(C)=O)cc3)C2)c1F` [Example 8.270]: it took 455 nM to reach half-maximal inhibition (IC50).

In turn, `CC(=O)N[C@@H](C)c1ccc(O[C@@H]2CCN(c3nc(N4C[C@@H]5C[C@H]4CO5)ncc3F)C2)cc1` [Example 8.155] showed an IC50 of 613 nM.

Compound `CCN(CCO)c1nccc(N2CC[C@@H](Oc3ccc([C@H](C)NC(C)=O)cc3)C2)n1` [Example 8.263] yielded an IC50 of 698 nM.

In the case of `CC(=O)N[C@@H](C)c1ccc(O[C@@H]2CCN(c3nc(N(C)CCO)ncc3F)C2)cc1` [Example 8.205], inhibition was half-maximal at 607 nM (IC50).

`CC(=O)N[C@@H](C)c1ccc(O[C@@H]2CCN(c3ccnc(N4CC(F)(F)C4)n3)C2)cc1` [Example 8.45] displayed an IC50 of 192 nM.

`CC(=O)N[C@@H](C)c1ccc(O[C@@H]2CCN(c3ccnc(N4[C@H](C)COC[C@H]4C)n3)C2)cc1` [Example 8.87] registered an IC50 of 128 nM.

For `CC(=O)N[C@@H](C)c1ccc(O[C@@H]2CCN(c3nc(N4CCCC4C)ncc3F)C2)cc1` (stereo partly drawn) [Example 8.254], the midpoint of inhibition, the IC50, lay at 60 nM.

Compound `CC(=O)N[C@@H](C)c1ccc(O[C@@H]2CCN(c3nc(N4CC[C@H](O)C4)ncc3F)C2)cc1` [Example 8.245] showed an IC50 of 937 nM.

Consider `CCCN(C)c1nccc(N2CC[C@@H](Oc3ccc([C@H](C)NC(C)=O)cc3)C2)n1` [Example 8.6], for which the concentration for half-maximal inhibition (IC50) worked out at 102 nM.

As to `COc1c(OC(C)C)ncnc1N1CC[C@@H](Oc2ccc([C@H](C)NC(C)=O)cc2)C1` [Example 7.50], the IC50 worked out at 97 nM.

Compound `C[C@H](NC(=O)N1CCC1)c1ccc(OC2CCN(c3ccnc(N4CCOCC4)n3)C2)cc1` (stereo partly drawn) [Example 3.4] displayed an IC50 of 1040 nM.

Turning to `CC(=O)N[C@@H](C)c1ccc(O[C@@H]2CCN(c3nc(N4CCOC(C)(C)C4)ncc3F)C2)cc1` [Example 8.224], the IC50 came out at 170 nM.

In turn, `CC(=O)N[C@@H](C)c1ccc(O[C@@H]2CCN(c3nc(OCC(F)F)ncc3F)C2)cc1` [Example 7.15] returned an IC50 of 828 nM.

Regarding `COC(=O)N[C@@H](C)c1ccc(OC2CCN(c3ncnc(OCC4CC4)c3F)C2)cc1` (stereo partly drawn) [Example 4.5], half-maximal inhibition (IC50) required 85 nM.

`CC(=O)N[C@@H](C)c1ccc(O[C@@H]2CCN(c3nc(N(C)CC4CC4)ncc3F)C2)cc1` [Example 8.9]: the 50% inhibitory concentration (IC50) was determined as 33 nM.

In turn, `CC(=O)N[C@@H](C)c1ccc(O[C@@H]2CCN(c3ncnc(N4CCOC(C(F)(F)F)C4)c3F)C2)cc1` (stereo partly drawn) [Example 8.198] came in with a concentration for half-maximal inhibition (IC50) of 549 nM.

On to `CC(=O)N[C@@H](C)c1ccc(O[C@@H]2CCN(c3nc(N(C)CCC#N)ncc3F)C2)cc1` [Example 8.64], for which 745 nM corresponded to half-maximal inhibition (IC50).

In turn, `CC(=O)N[C@@H](C)c1ccc(O[C@@H]2CCN(c3ncc(C4CCCC4)cn3)C2)cc1` [Example 6.18] gave an IC50 of 935 nM.

In turn, `CC(=O)N[C@@H](C)c1ccc(O[C@@H]2CCN(c3nc(N(C)C4CC4)ncc3Cl)C2)cc1` [Example 8.145] had a 50% inhibitory concentration (IC50) of 93 nM.

Compound `CCN(CC)c1ncc(F)c(N2CC[C@@H](Oc3ccc([C@H](C)NC(C)=O)cc3)C2)n1` [Example 8.26] registered an IC50 of 69 nM.

As to `CCN(CC(F)(F)F)c1nccc(N2CC[C@@H](Oc3ccc([C@H](C)NC(C)=O)cc3)C2)n1` [Example 8.79], the IC50 was 37 nM.

The compound `CCN(C)c1nccc(N2CC[C@@H](Oc3ccc([C@H](C)NC(C)=O)cc3)C2)n1` [Example 8.21] returned an IC50 of 190 nM.

For `CC(=O)N[C@@H](C)c1ccc(O[C@@H]2CCN(c3ccnc(N4CCC(C)(C)C4)n3)C2)cc1` [Example 8.78], the IC50 amounted to 260 nM.

Compound `CC(=O)N[C@@H](C)c1ccc(O[C@@H]2CCN(c3nc(N(C)CC4CCOC4)ncc3C)C2)cc1` (stereo partly drawn) [Example 8.52] yielded a half-inhibitory concentration (IC50) of 905 nM.

For the compound `CC(=O)N[C@@H](C)c1ccc(O[C@@H]2CCN(c3nc(OCC4(C)CC4)ncc3F)C2)cc1` [Example 7.18], the IC50 is 565 nM.

In the case of `CCC(=O)Nc1nc(C)c(C(=O)N[C@@H](C)c2ccc(O[C@@H]3CCN(c4ncnc(OCC(C)(C)O)c4F)C3)cc2)s1` [Example 7.65], inhibition was half-maximal at 650 nM (IC50).

As for `CC(=O)N[C@@H](C)c1ccc(O[C@@H]2CCN(c3ccnc(N4CCC(C#N)C4)n3)C2)cc1` (stereo partly drawn) [Example 8.77], the IC50 turned out to be 489 nM.

Compound `CC(=O)N[C@@H](C)c1ccc(O[C@@H]2CCN(c3ccnc(N(C)CC(F)F)n3)C2)cc1` [Example 8.44] registered a 50% inhibitory concentration (IC50) of 55 nM.

In the case of `CC(=O)N[C@@H](C)c1ccc(O[C@@H]2CCN(c3ncnc(N4CC[C@H](C)C4)c3F)C2)cc1` [Example 8.293], the concentration for half-maximal inhibition (IC50) stood at 50 nM.

The compound `C[C@H](NC(=O)C(F)F)c1ccc(OC2CCN(c3ncnc(OCC4CC4)c3F)C2)cc1` (stereo partly drawn) [Example 5.3] came in with an IC50 of 65 nM.

For the compound `CC(=O)N[C@@H](C)c1ccc(O[C@@H]2CCN(c3ncnc(OCC4CC4)c3Cl)C2)cc1` [Example 7.20], the half-maximal inhibitory concentration (IC50) was 35 nM.

As for `COc1c(OCC(C)(F)F)ncnc1N1CC[C@@H](Oc2ccc([C@H](C)NC(C)=O)cc2)C1` [Example 7.49], the 50% inhibitory concentration (IC50) was 117 nM.

Turning to `CC(=O)N[C@@H](C)c1ccc(O[C@@H]2CCN(c3nc(N4CCCC4)ncc3F)C2)cc1` [Example 8.12], the half-maximal inhibitory concentration (IC50) was found to be 67 nM.

Regarding `CC(=O)N[C@@H](C)c1ccc(O[C@@H]2CCN(c3ncnc(OCC4(C#N)CC4)c3F)C2)cc1` [Example 7.29], the IC50 is 175 nM.

With `CC(=O)N[C@@H](C)c1ccc(O[C@@H]2CCN(c3ccnc(N4CCC(F)(F)CC4)n3)C2)cc1` [Example 8.207], the midpoint of inhibition, the IC50, lay at 99 nM.

As for `CCN(C)c1ncnc(N2CC[C@@H](Oc3ccc([C@H](C)NC(C)=O)cc3)C2)c1C` [Example 8.101], the IC50 is 376 nM.

In turn, `CCOc1ncc(F)c(N2CC[C@@H](Oc3ccc([C@H](C)NC(C)=O)cc3)C2)n1` [Example 7.12] yielded an IC50 of 585 nM.
